Experiment in all cases: biochemical
Holding throughout (set-up): Thermo Fisher SelectScreen kinase panel: Z'-LYTE and Adapta activity, LanthaScreen binding

In one experiment the target is T1, TIE2 (Homo sapiens, UniProt Q02763).
T1 construct: gene TEK
In outline:
(§1)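 Single-concentration panel: 10 µM GNE684 in KINOMEscan scanMAX binding (468 kinases) and in a 221-kinase panel run as Z'-LYTE/Adapta activity or LanthaScreen binding assays.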

For the next experiment, the target named is T2, ALK2 (Homo sapiens, UniProt Q04771).
T2 construct: gene ACVR1
T2 sequence (Q04771 whole entry): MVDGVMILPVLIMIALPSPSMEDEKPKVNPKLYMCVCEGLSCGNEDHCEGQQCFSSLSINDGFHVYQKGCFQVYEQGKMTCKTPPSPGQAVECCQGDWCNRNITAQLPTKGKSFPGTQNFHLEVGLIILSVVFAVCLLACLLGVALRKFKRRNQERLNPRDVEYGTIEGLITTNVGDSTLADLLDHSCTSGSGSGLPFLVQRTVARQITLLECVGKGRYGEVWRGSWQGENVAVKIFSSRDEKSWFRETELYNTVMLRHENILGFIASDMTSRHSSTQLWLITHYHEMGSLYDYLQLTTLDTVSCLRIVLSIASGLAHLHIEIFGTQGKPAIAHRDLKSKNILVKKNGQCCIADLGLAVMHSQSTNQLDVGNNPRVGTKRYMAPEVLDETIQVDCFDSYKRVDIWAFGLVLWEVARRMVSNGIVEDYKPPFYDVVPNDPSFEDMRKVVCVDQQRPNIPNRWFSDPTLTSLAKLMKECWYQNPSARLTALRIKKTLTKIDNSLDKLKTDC
The gist of the method: as §1

The target of another experiment is NEK4 (Homo sapiens, UniProt P51957). The gist of the method:
as §1

In the next experiment the target is T3, ZIPK (Homo sapiens, UniProt O43293).
T3 construct: gene DAPK3
The gist of the method:
as §1

A further experiment addresses T4, p38-delta (Homo sapiens, UniProt O15264).
T4 construct: gene MAPK13
The gist of the method: as §1

The next experiment has as its target MUSK (Homo sapiens, UniProt O15146). In outline: as §1
A further experiment has as its target RET (Homo sapiens, UniProt P07949). In outline: as §1
The next experiment has as its target NEK6 (Homo sapiens, UniProt Q9HC98). The gist of the method:
as §1

The target of the next experiment is SRPK1 (Homo sapiens, UniProt Q96SB4). In outline: as §1
The next experiment deals with T5, JNK3 (Homo sapiens, UniProt P53779).
T5 construct: gene MAPK10
T5 sequence (P53779 whole entry): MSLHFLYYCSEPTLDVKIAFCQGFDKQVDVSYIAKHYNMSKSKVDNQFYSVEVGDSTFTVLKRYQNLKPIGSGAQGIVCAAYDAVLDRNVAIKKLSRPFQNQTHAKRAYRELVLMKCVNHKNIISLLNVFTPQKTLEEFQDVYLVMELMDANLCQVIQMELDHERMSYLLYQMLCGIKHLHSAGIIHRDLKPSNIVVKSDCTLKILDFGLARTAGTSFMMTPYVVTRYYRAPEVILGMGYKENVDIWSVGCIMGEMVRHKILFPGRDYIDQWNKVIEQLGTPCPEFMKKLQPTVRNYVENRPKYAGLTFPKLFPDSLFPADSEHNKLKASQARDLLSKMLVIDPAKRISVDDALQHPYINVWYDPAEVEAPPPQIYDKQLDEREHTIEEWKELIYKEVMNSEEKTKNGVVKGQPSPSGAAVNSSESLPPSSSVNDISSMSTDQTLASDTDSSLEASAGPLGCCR
The gist of the method:
as §1

The next experiment deals with NEK1 (Homo sapiens, UniProt Q96PY6). In outline: as §1
NEK1, sequence (Q96PY6 whole entry): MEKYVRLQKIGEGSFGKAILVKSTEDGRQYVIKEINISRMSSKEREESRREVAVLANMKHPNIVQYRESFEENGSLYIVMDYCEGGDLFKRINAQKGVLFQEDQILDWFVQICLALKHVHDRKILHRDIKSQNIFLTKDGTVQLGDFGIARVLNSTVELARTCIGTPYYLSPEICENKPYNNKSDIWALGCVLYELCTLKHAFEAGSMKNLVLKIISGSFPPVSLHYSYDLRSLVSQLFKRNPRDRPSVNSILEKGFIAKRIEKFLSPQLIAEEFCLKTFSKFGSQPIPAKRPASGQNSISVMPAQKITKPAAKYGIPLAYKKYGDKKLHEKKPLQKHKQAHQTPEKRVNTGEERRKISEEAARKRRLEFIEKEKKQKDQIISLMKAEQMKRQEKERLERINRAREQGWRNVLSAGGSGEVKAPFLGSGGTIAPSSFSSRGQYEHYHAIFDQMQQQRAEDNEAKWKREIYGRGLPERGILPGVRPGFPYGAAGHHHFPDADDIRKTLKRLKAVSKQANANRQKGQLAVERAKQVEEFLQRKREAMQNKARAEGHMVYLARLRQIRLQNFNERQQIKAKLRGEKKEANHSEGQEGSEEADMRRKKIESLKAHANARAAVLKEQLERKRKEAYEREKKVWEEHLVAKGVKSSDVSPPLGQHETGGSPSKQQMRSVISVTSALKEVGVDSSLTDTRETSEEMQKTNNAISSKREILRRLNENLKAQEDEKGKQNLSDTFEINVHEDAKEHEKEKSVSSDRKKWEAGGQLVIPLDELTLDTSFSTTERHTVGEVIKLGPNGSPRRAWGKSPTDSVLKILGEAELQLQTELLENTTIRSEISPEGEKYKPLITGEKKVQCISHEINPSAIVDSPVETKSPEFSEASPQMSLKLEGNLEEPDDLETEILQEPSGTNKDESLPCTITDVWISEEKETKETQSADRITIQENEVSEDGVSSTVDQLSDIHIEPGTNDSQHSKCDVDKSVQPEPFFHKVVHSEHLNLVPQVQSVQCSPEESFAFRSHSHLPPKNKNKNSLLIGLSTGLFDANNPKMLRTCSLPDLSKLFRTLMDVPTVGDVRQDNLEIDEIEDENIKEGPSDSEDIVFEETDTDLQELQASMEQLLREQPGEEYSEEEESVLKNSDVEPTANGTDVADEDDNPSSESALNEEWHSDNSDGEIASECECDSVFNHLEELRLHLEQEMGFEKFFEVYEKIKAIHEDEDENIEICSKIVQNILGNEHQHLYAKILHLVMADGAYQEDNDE
In a further experiment the target is T6, MLK2 (Homo sapiens, UniProt Q02779).
T6 construct: gene MAP3K10
The gist of the method: as §1

In the next experiment the target is T7, MYLK(smMLCK) (Homo sapiens, UniProt Q15746).
T7 construct: smooth muscle MLCK
The gist of the method:
as §1

The target of the next experiment is RIPK3 (Homo sapiens, UniProt Q9Y572). The gist of the method:
as §1

In a further experiment the target is T8, TSSK1 (Homo sapiens, UniProt Q9BXA7).
T8 construct: gene TSSK1B
T8 sequence (Q9BXA7 whole entry): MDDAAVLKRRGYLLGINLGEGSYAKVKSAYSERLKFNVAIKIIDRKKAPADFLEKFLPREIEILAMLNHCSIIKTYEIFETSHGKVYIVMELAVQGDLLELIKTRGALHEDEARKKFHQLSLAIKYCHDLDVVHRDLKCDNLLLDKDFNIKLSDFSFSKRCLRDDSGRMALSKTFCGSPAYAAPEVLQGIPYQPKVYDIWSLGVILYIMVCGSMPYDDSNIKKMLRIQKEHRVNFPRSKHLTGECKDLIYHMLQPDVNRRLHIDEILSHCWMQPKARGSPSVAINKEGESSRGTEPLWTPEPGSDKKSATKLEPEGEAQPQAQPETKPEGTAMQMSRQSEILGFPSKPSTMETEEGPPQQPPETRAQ
The gist of the method:
as §1

The target in the next experiment is PIM1 (Homo sapiens, UniProt P11309). In outline:
as §1

Another experiment concerns the target T9, PhK_gamma2 (Homo sapiens, UniProt P15735).
T9 construct: gene PHKG2
In outline:
as §1

The target in the next experiment is IRAK1 (Homo sapiens, UniProt P51617). In outline: as §1
In a further experiment the target is MARK3 (Homo sapiens, UniProt P27448). The gist of the method: as §1
MARK3, sequence (P27448 whole entry): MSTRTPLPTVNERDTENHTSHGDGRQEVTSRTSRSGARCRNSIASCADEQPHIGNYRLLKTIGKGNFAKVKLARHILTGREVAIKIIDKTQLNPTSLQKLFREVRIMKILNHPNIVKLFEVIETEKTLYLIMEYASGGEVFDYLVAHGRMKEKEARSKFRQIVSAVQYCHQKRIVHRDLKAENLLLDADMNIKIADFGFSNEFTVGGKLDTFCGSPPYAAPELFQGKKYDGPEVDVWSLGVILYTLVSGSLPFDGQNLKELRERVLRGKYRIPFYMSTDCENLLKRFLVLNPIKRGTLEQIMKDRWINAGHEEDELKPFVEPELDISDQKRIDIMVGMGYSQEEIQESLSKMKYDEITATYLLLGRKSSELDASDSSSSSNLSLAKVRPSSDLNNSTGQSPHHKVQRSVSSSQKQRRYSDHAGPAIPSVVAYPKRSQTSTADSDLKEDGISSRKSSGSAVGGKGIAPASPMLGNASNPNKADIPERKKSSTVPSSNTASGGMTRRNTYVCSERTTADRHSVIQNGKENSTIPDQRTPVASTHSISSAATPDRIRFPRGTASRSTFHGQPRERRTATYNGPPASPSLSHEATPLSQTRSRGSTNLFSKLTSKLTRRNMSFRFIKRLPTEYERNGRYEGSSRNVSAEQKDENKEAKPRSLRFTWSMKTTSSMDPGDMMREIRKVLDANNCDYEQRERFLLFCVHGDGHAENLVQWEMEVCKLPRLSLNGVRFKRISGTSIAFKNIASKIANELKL
The target of the next experiment is Mink1 (Homo sapiens, UniProt Q8N4C8). In outline: as §1
In the next experiment the target is CDK1/cyclinB (Homo sapiens, UniProt P06493). In outline:
as §1

The target of a further experiment is T10, IRR (Homo sapiens, UniProt P14616).
T10 construct: gene INSRR
The gist of the method: as §1

In a further experiment the target is CSK (Homo sapiens, UniProt P41240). In outline: as §1
CSK, sequence (P41240 whole entry): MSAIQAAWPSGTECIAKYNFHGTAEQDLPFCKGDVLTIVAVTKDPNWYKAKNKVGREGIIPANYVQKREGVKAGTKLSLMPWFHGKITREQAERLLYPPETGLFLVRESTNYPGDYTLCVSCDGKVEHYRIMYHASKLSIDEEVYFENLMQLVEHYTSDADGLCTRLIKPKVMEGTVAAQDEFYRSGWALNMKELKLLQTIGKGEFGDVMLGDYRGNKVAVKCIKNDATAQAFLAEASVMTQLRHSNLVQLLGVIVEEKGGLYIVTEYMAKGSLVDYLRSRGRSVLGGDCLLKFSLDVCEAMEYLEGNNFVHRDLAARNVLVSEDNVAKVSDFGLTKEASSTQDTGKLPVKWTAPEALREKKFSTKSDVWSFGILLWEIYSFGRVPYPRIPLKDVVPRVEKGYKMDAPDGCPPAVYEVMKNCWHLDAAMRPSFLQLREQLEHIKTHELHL

T9 sequence (P15735 whole entry): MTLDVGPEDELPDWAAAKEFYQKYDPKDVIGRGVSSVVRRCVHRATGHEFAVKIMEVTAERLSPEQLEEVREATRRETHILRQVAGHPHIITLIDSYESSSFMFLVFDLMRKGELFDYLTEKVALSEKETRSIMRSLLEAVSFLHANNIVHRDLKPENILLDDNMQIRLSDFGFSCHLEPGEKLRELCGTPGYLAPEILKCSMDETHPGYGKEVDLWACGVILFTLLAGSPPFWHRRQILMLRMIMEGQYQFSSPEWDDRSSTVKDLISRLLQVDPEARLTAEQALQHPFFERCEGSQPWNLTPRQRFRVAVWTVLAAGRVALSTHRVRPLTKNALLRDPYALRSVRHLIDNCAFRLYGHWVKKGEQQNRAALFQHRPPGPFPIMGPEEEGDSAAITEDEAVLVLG
NEK4, sequence (P51957 whole entry): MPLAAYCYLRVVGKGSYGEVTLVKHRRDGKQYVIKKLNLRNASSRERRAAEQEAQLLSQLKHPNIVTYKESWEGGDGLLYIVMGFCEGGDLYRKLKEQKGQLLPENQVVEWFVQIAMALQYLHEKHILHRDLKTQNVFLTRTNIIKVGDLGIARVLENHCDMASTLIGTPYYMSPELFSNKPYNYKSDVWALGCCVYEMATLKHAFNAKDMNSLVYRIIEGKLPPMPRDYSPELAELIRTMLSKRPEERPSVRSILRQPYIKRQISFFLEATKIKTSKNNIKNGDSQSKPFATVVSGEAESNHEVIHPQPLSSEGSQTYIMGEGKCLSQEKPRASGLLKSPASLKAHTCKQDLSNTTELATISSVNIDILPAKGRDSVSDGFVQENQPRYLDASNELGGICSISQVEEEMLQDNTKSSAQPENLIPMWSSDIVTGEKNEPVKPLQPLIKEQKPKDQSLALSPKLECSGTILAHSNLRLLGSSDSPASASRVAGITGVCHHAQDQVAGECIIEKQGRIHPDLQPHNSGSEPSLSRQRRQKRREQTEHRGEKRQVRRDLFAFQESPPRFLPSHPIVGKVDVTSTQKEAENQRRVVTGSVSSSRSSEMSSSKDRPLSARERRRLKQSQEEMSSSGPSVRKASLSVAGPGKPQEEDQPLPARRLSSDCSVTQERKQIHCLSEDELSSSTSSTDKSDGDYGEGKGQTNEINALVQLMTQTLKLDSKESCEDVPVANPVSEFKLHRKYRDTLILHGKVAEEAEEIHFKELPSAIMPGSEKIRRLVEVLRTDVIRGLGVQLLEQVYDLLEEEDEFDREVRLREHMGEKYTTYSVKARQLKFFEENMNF

As usually defined, the inhibition is the drop in the measured response relative to a control, in per cent. Regarding `COc1cc2c(cn1)N(C)C(=O)[C@@H](NC(=O)c1nc3n(n1)[C@H](c1ccccc1)CC3)CC2` [GNE684, (S)-N-((S)-7-methoxy-1-methyl-2-oxo-2,3,4,5-tetrahydro-1H-pyrido[3,4-b]azepin-3-yl)-5-phenyl-6,7-dihydro-5H-pyrrolo[1,2-b][1,2,4]triazole-2-carboxamide], the inhibition at 10 µM at TIE2 was -4.5%; at ALK2 it was 2%; at NEK4, 4.5%; on ZIPK, 1%; at p38-delta it was 3.5%; on MUSK, 14%. In addition, the inhibition at 10 µM on RET was 4%; at NEK6, -2%; on SRPK1, -0.5%; at JNK3, 3%; on NEK1, 7.5%; on MLK2, 0%. Moreover, the inhibition at 10 µM on MYLK(smMLCK) is -5%; at RIPK3, -3%; at TSSK1 it was 6%; at PIM1, 1%; at PhK_gamma2, 1%; on IRAK1, -10.5%. In addition, the inhibition at 10 µM is -2.5% on MARK3; 18.5% on Mink1; -0.5% on CDK1/cyclinB; 12% at IRR; -1.5% on CSK.

The values above are taken from article PMC7206119, “RIP1 inhibition blocks inflammatory diseases but not tumor growth or metastases” (Cell Death and Differentiation, 2019).
